According to PubChem BioAssay (NCI):
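In this assay, cells in 96-well plates receive the compound at five concentrations for 48 hours. Endpoints are linearly interpolated between the surrounding concentrations. TGI denotes the concentration required for complete inhibition of growth.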

Experiments:
Experiment in all cases: NCI-60 cell line screen, 48 h
SK-OV-3 ovarian = test system: SK-OV-3 ovarian
HCT-116 colon = test system: HCT-116 colon
COLO 205 colon = test system: COLO 205 colon
HOP-62 NSCLC = test system: HOP-62 NSCLC
SNB-75 CNS = test system: SNB-75 CNS
SF-539 CNS = test system: SF-539 CNS
SNB-19 CNS = test system: SNB-19 CNS
UACC-62 melanoma = test system: UACC-62 melanoma
HCC-2998 colon = test system: HCC-2998 colon
HOP-18 NSCLC = test system: HOP-18 NSCLC
MALME-3M melanoma = test system: MALME-3M melanoma
HOP-92 NSCLC = test system: HOP-92 NSCLC
UACC-257 melanoma = test system: UACC-257 melanoma
K-562 leukemia = test system: K-562 leukemia
SN12C renal = test system: SN12C renal
RXF-631 renal = test system: RXF-631 renal
SNB-78 CNS = test system: SNB-78 CNS
SF-268 CNS = test system: SF-268 CNS
NCI-H23 lung = test system: NCI-H23 lung
U251 CNS = test system: U251 CNS
OVCAR-8 ovarian = test system: OVCAR-8 ovarian
SW-620 colon = test system: SW-620 colon
A498 renal = test system: A498 renal
NCI-H226 lung = test system: NCI-H226 lung
SK-MEL-5 melanoma = test system: SK-MEL-5 melanoma
DMS 273 small cell lung = test system: DMS 273 small cell lung
M14 melanoma = test system: M14 melanoma
NCI-H460 lung = test system: NCI-H460 lung
MOLT-4 leukemia = test system: MOLT-4 leukemia
CCRF-CEM leukemia = test system: CCRF-CEM leukemia
RPMI-8226 leukemia = test system: RPMI-8226 leukemia
DLD-1 colon = test system: DLD-1 colon
SK-MEL-2 melanoma = test system: SK-MEL-2 melanoma
786-0 renal = test system: 786-0 renal
DMS 114 small cell lung = test system: DMS 114 small cell lung
UO-31 renal = test system: UO-31 renal
HCT-15 colon = test system: HCT-15 colon
SF-295 CNS = test system: SF-295 CNS
CAKI-1 renal = test system: CAKI-1 renal
KM20L2 colon = test system: KM20L2 colon
M19-MEL melanoma = test system: M19-MEL melanoma
OVCAR-4 ovarian = test system: OVCAR-4 ovarian
OVCAR-5 ovarian = test system: OVCAR-5 ovarian
KM12 colon = test system: KM12 colon
XF 498 CNS = test system: XF 498 CNS
EKVX NSCLC = test system: EKVX NSCLC
SK-MEL-28 melanoma = test system: SK-MEL-28 melanoma
IGROV1 ovarian = test system: IGROV1 ovarian
HT29 colon = test system: HT29 colon
TK-10 renal = test system: TK-10 renal
OVCAR-3 ovarian = test system: OVCAR-3 ovarian
LOX IMVI melanoma = test system: LOX IMVI melanoma
ACHN renal = test system: ACHN renal
A549 NSCLC = test system: A549 NSCLC
NCI-H522 lung = test system: NCI-H522 lung
HL-60(TB) leukemia = test system: HL-60(TB) leukemia
RXF 393 renal = test system: RXF 393 renal
LXFL 529 NSCLC = test system: LXFL 529 NSCLC
SR leukemia = test system: SR leukemia

Measured: TGI

CC(=O)NN1C(=O)C(Cc2ccccc2)c2ccccc21 (stereo not drawn)
> 100 µM: SK-OV-3 ovarian | HCT-116 colon | COLO 205 colon | HOP-62 NSCLC | SNB-75 CNS | SF-539 CNS | SNB-19 CNS | UACC-62 melanoma | HCC-2998 colon | HOP-18 NSCLC | MALME-3M melanoma | HOP-92 NSCLC | UACC-257 melanoma | K-562 leukemia | SN12C renal | RXF-631 renal | SNB-78 CNS | SF-268 CNS | NCI-H23 lung | U251 CNS | OVCAR-8 ovarian | SW-620 colon | A498 renal | NCI-H226 lung | SK-MEL-5 melanoma | DMS 273 small cell lung | M14 melanoma | NCI-H460 lung | MOLT-4 leukemia | CCRF-CEM leukemia | RPMI-8226 leukemia | DLD-1 colon | SK-MEL-2 melanoma | 786-0 renal | DMS 114 small cell lung | UO-31 renal | HCT-15 colon | SF-295 CNS | CAKI-1 renal | KM20L2 colon | M19-MEL melanoma | OVCAR-4 ovarian | OVCAR-5 ovarian | KM12 colon | XF 498 CNS | EKVX NSCLC | SK-MEL-28 melanoma | IGROV1 ovarian | HT29 colon | TK-10 renal | OVCAR-3 ovarian | LOX IMVI melanoma | ACHN renal | A549 NSCLC

COc1ccc([C@@H]2OC(=O)C3C2C(=O)O[C@H]3c2ccc(OC)c(OC)c2)cc1OC (stereo partly drawn)
> 100 µM: SK-OV-3 ovarian | HCT-116 colon | COLO 205 colon | NCI-H522 lung | HOP-62 NSCLC | SNB-75 CNS | SF-539 CNS | SNB-19 CNS | UACC-62 melanoma | HCC-2998 colon | HL-60(TB) leukemia | HOP-18 NSCLC | MALME-3M melanoma | HOP-92 NSCLC | UACC-257 melanoma | K-562 leukemia | SN12C renal | RXF-631 renal | SNB-78 CNS | SF-268 CNS | NCI-H23 lung | U251 CNS | RXF 393 renal | OVCAR-8 ovarian | SW-620 colon | A498 renal | NCI-H226 lung | SK-MEL-5 melanoma | DMS 273 small cell lung | M14 melanoma | NCI-H460 lung | MOLT-4 leukemia | CCRF-CEM leukemia | RPMI-8226 leukemia | SK-MEL-2 melanoma | 786-0 renal | DMS 114 small cell lung | UO-31 renal | HCT-15 colon | SF-295 CNS | KM20L2 colon | M19-MEL melanoma | OVCAR-4 ovarian | KM12 colon | XF 498 CNS | EKVX NSCLC | SK-MEL-28 melanoma | IGROV1 ovarian | HT29 colon | TK-10 renal | OVCAR-3 ovarian | LOX IMVI melanoma | ACHN renal | A549 NSCLC

CC1c2[nH]c3ccccc3c2CCN1O (stereo not drawn)
> 100 µM: SK-OV-3 ovarian | HCT-116 colon | COLO 205 colon | LXFL 529 NSCLC | NCI-H522 lung | SNB-75 CNS | SF-539 CNS | SNB-19 CNS | UACC-62 melanoma | HCC-2998 colon | HL-60(TB) leukemia | HOP-18 NSCLC | MALME-3M melanoma | HOP-92 NSCLC | UACC-257 melanoma | K-562 leukemia | SN12C renal | RXF-631 renal | SNB-78 CNS | SF-268 CNS | NCI-H23 lung | U251 CNS | RXF 393 renal | OVCAR-8 ovarian | SW-620 colon | A498 renal | NCI-H226 lung | SK-MEL-5 melanoma | DMS 273 small cell lung | M14 melanoma | MOLT-4 leukemia | CCRF-CEM leukemia | RPMI-8226 leukemia | DLD-1 colon | SK-MEL-2 melanoma | 786-0 renal | DMS 114 small cell lung | UO-31 renal | HCT-15 colon | SF-295 CNS | CAKI-1 renal | KM20L2 colon | M19-MEL melanoma | OVCAR-4 ovarian | OVCAR-5 ovarian | KM12 colon | EKVX NSCLC | SK-MEL-28 melanoma | IGROV1 ovarian | HT29 colon | TK-10 renal | OVCAR-3 ovarian | LOX IMVI melanoma | ACHN renal | A549 NSCLC

COc1ccc(OC(C)C(=O)O)c2c(=O)ccccc12 (stereo not drawn)
> 100 µM: SK-OV-3 ovarian | COLO 205 colon | LXFL 529 NSCLC | NCI-H522 lung | HOP-62 NSCLC | SNB-75 CNS | SF-539 CNS | SNB-19 CNS | UACC-62 melanoma | HCC-2998 colon | HL-60(TB) leukemia | MALME-3M melanoma | UACC-257 melanoma | K-562 leukemia | SN12C renal | RXF-631 renal | SNB-78 CNS | SF-268 CNS | NCI-H23 lung | U251 CNS | RXF 393 renal | OVCAR-8 ovarian | SW-620 colon | A498 renal | NCI-H226 lung | SK-MEL-5 melanoma | DMS 273 small cell lung | M14 melanoma | NCI-H460 lung | MOLT-4 leukemia | CCRF-CEM leukemia | RPMI-8226 leukemia | DLD-1 colon | SK-MEL-2 melanoma | 786-0 renal | DMS 114 small cell lung | UO-31 renal | HCT-15 colon | SF-295 CNS | SR leukemia | KM20L2 colon | M19-MEL melanoma | OVCAR-4 ovarian | OVCAR-5 ovarian | KM12 colon | XF 498 CNS | EKVX NSCLC | SK-MEL-28 melanoma | IGROV1 ovarian | HT29 colon | TK-10 renal | OVCAR-3 ovarian | LOX IMVI melanoma | ACHN renal | A549 NSCLC
